Legend:
human FXR = biological target: T1, human FXR (Homo sapiens, UniProt Q96RI1); test: FXR counter screen, cell-based luciferase reporter assay; conditions: cells expressing human FXR and FXR-responsive luciferase reporter, 0.4 to 50 μM test compound; read-out: pEC50 human FXR (converted)
T1 construct: purchased Indigo Biosciences (State College, Pa.)
T1 sequence (Q96RI1 1-486): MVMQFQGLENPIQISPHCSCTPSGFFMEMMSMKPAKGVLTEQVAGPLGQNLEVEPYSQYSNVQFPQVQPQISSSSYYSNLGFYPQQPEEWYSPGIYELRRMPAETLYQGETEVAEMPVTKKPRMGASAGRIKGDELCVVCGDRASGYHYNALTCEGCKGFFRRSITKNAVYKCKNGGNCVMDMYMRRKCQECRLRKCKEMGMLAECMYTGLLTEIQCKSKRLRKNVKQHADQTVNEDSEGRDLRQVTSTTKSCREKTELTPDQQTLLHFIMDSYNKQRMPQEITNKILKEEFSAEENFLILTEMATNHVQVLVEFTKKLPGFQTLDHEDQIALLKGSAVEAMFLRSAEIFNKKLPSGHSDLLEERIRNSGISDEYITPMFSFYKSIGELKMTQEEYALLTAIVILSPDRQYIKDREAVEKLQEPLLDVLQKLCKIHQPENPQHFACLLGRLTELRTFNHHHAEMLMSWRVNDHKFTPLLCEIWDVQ
Description: FXR: The ability of test compounds to activate FXR (NR1H4) was measured using a cell-based assay kit obtained from Indigo Biosciences (State College, Pa.).

[1] = biological target: T2, endogenously expressed TGR5 in NCI H716 (Homo sapiens, UniProt Q8TDU6); test: Cell-based TGR5 assay, NCI-H716 cells endogenously expressing human TGR5, cAMP by HTRF; conditions: 30 min at 37 C, 22 nM to 50 μM, read-out: pEC50 endogenously expressed TGR5 in NCI H716 (converted)
T2 construct: human caecum carcinoma cell line NCI-H716 which endogenously expresses human TGR5; endogenous in cells; host or cells: NCI-H716
T2 sequence (Q8TDU6 1-330): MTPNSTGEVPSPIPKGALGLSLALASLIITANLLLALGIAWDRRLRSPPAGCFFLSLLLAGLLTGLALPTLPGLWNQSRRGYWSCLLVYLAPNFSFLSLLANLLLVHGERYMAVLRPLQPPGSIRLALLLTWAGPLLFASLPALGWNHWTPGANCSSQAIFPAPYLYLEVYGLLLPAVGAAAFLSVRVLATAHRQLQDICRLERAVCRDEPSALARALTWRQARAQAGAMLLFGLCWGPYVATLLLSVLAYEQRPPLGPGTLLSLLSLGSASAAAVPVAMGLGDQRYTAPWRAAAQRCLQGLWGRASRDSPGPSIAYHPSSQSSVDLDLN
Method in brief: (§1)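 cAMP HTRF read-out, converted to concentration via standard curve, after a 30 min, 37 °C compound exposure in HBSS with 10 mM HEPES pH 7.4 and 0.5 mM IBMX, compounds serially diluted 3-fold from 10 mM DMSO stock then 100-fold. Cells: stable human TGR5 HEK293, or NCI-H716 expressing TGR5 endogenously.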

human TGR5 = biological target: T3, human TGR5 (Homo sapiens, UniProt Q8TDU6); test: Cell-based TGR5 assay, HEK293 cells stably expressing human TGR5, cAMP by HTRF; conditions: HEK293 cells stably expressing human TGR5, 30 min at 37 C, 0.05 nM to 10 μM, read-out: pEC50 Human TGR5 (converted)
T3 construct: expressed in transfected cells
T3 sequence (Q8TDU6 1-330): T2 sequence (Q8TDU6 1-330)
Method in brief: as §1

human IBAT = biological target: T4, human IBAT (Homo sapiens, UniProt Q12908); test: IBAT counter screen, [3H]taurocholic acid uptake in IBAT-transfected HEK293 cells; assay type: cell-based; conditions: read-out: pEC50 human IBAT (converted)
T4 construct: expressed in transfected cells; host or cells: HEK293
T4 sequence (Q12908 1-348): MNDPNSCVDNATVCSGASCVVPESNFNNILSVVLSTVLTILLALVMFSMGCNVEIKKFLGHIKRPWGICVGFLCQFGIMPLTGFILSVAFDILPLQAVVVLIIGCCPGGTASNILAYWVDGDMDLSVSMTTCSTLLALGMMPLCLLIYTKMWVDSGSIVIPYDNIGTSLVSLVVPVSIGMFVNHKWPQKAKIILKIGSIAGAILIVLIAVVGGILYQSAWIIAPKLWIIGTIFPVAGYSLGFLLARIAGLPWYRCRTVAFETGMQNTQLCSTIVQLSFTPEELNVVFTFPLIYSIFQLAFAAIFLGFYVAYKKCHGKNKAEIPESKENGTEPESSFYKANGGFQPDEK
Description: Following a 40-min incubation, the solution was removed, and the cells were washed twice with uptake buffer. Cells were lysed by addition of 20 μL 0.1% Tween 80 followed by 100 μL scintillation fluid and counted using a TopCount (Perkin Elmer).

[2] = Compound concentration in gallbladder 16 hours post dose; assay type: in vivo; conditions: 30 mg/kg; for Number of Mice with Gallbladder Concentration < LLOQ: mice below LLOQ / mice in group; for concentration at 16 h: male, C57BL/6, mouse, gallbladder (homogenate, with contents), mice, gallbladder, read-out: Mean Example Gallbladder Concentration
Description: Compound concentrations in the gall bladder were determined as follows: each mouse was heavily anesthetized with isoflurane, the peritoneal cavity was opened and the gallbladder, with its entire contents, was carefully excised. After harvest, gall bladders were homogenized in 100 μL water using a micro-homogenizer. Samples of homogenate were diluted 1:5 in water and precipitated with three volumes of neat acetonitrile. After centrifugation, supernatants were analyzed by LC-MS/MS. The level of test compound present in gall bladder samples was interpolated from a standard curve for each individual compound prepared in a matrix of gallbladder homogenate from vehicle treated animals.
C57BL/6 male mice on regular chow had food removed (to prevent gallbladder emptying) and were dosed in the early evening with vehicle (2% DMSO in 0.4% hydroxypropyl methylcellulose) or 30 mg/kg of examples 176, 177, or 178 formulated in vehicle. The next morning (˜16 h post-dose), mice were heavily anesthetized with isoflurane, the peritoneal cavity was opened and gallbladders (with contents) were carefully excised and weighed. Compound levels in gallbladder were analyzed as described in Example 293.

CD-1 female mice = test: In vivo measurement of CCK-mediated gallbladder emptying (egg yolk); conditions: fasted ~16 h, oral 30 mg/kg (devazepide 1 mg/kg) 1 h before egg yolk, gallbladder weighed 15 min later (FIG. 1)
Description: CD-1 female mice on regular chow had food removed (to prevent gallbladder emptying) in the late evening. The next morning (˜16 h later), groups of mice were dosed orally with vehicle (10% hydroxypropyl-β-cyclodextrin; 2 groups), devazepide in water (1 mg/kg; […]. One hour later, 1 group of vehicle-treated mice was dosed orally with saline, and all other groups were dosed orally with lyophilized egg yolk [0.75 mL; 30% (wt/vol) reconstituted in saline for induction of CCK-mediated gallbladder emptying]. Fifteen minutes later, mice were heavily anesthetized with isoflurane, the peritoneal cavity was opened and gallbladders (with contents) were carefully excised and weighed.

[3] = Compound concentration in gall bladder, LC-MS/MS, 8 h post dose; assay type: in vivo; conditions: 30 mg/kg
Method in brief: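 Gallbladder with its contents excised from isoflurane-anesthetized mice 8 h after dosing and homogenized in water. Homogenate diluted 1:5, precipitated with acetonitrile and measured by LC-MS/MS. Levels interpolated from per-compound standard curves in vehicle-treated gallbladder homogenate.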

total GLP-1 = test: In vivo GLP-1 secretion, plasma total GLP-1 8 h post dose; conditions: Mus musculus, C57BL/6 male mice, food removed, plasma total GLP-1 eight hours after dosing, read-out: GLP-1 fold change over vehicle, Mean
Description: (§2) Eight hours later, each mouse was heavily anesthetized with isoflurane, the peritoneal cavity was opened and the gallbladder, with its entire contents, was carefully excised and weighed. Blood was collected from the left ventricle of the heart and processed to plasma in EDTA-coated tubes containing aprotinin and DPPIV inhibitor for measurement of total GLP-1 (K150FCC; Meso Scales Discovery, Gaithersburg Md.).

[4] = Compound plasma concentration, LC-MS/MS, 8 h post dose; assay type: in vivo; conditions: 30 mg/kg
Method in brief: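 Blood was taken from the left ventricle 8 h after dosing, under isoflurane anesthesia, into EDTA tubes containing aprotinin and DPPIV inhibitor. Plasma was protein-precipitated with acetonitrile containing an internal standard, and supernatants were analyzed by LC-MS/MS against a plasma standard curve.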

C57BL/6 male mice = test: In vivo gallbladder measurement (weight) 8 h post dose; conditions: 30 mg/kg
Description: as §2

[5] = mice below LLOQ / mice in group

SMILES | EC50 (human FXR) | EC50 [1] | EC50 (human TGR5) | further results
O=C(N1CCN(C2CC2)c2ccccc21)C1(OCc2cc(Cl)ccc2Cl)CC1 [Example 9, (4-cyclopropyl-3,4-dihydroquinoxalin-1(2H)-yl)(1-(2,5-dichlorobenzyloxyl)cyclopropyl)methanone] | > 50.1 µM | 0.126 to 1 µM | < 0.1 µM | EC50 (human IBAT): > 25.1 µM
CN1C(=O)[C@@H](NC(=O)c2cc3ccccc3[nH]2)N=C(c2ccccc2)c2ccccc21 [devazepide, reference compound] | – | – | – | inhibition of CCK-mediated gallbladder emptying (CD-1 female mice): did
CN(C[C@H](O)[C@@H](O)[C@H](O)[C@H](O)CO)C(=O)CCc1cc(Cl)c(OCC2(C(=O)N3CCN(C4CC4)c4ccccc43)CC2)cc1Cl [Example 34, 3-[2,5-dichloro-4-([1-[(4-cyclopropyl-1,2,3,4-tetrahydroquinoxalin-1-yl)carbonyl]cyclopropyl]methoxy)phenyl]-N-methyl-N-[(2S,3R,4R,5R)-2,3,4,5,6-pentahydroxyhexyl]propanamide] | > 50.1 µM | 1.26 to 50.1 µM | 0.126 to 1 µM | –
O=C(N1CCN(C2CC2)c2ccccc21)C1(COc2cc(Cl)ccc2Cl)CC1 [Example 32, 1-cyclopropyl-4-[[1-(2,5-dichlorophenoxymethyl)cyclopropyl]carbonyl]-1,2,3,4-tetrahydroquinoxaline] | > 50.1 µM | 0.126 to 1 µM | < 0.1 µM | –
O=C(CCc1cc(Cl)c(OCC2(C(=O)N3CCN(C4CC4)c4ccccc43)CC2)cc1Cl)NC[C@H](O)[C@@H](O)[C@H](O)[C@H](O)CO [Example 75, 3-[2,5-dichloro-4-([1-[(4-cyclopropyl-1,2,3,4-tetrahydroquinoxalin-1-yl)carbonyl]cyclopropyl]methoxy)phenyl]-N-[(2S,3R,4R,5R)-2,3,4,5,6-pentahydroxyhexyl]propanamide] | > 50.1 µM | 0.126 to 1 µM | 0.126 to 1 µM | –
O=C(N1CCN(C2CC2)c2ccccc21)C1(NCc2cc(Cl)ccc2Cl)CC1 [Example 26, (4-cyclopropyl-3,4-dihydroquinoxalin-1(2H)-yl)(1-((2,5-dichlorobenzyl)amino)cyclopropyl)methanone] | > 50.1 µM | < 0.1 µM | < 0.1 µM | Number of Mice with Gallbladder Concentration < LLOQ [3, 5]: 0/8; concentration at 8 h ([3]; male, C57BL/6, mouse, with contents, mice, gallbladder homogenate, read-out: Mean Example Gallbladder Concentration): 30 nM; response vs control in vivo at 30 mg/kg (total GLP-1): 160%; Number of Mice with Plasma Concentration < LLOQ [4, 5]: 0/8; concentration at 8 h ([4]; male, C57BL/6, mouse, mice, plasma, read-out: Mean Example Plasma Concentration): 9.1 ng/mL; EC50 (human IBAT): > 25.1 µM; Gallbladder weight/body weight fold change over vehicle, Significance (C57BL/6 male mice; 8 h, vs. vehicle, one-way ANOVA, Dunnett's test): * (* p < 0.05 vs. vehicle; One-way ANOVA followed by Dunnett's test); Gallbladder weight/body weight fold change over vehicle, Mean (C57BL/6 male mice; food removed, eight hours after dosing): 1.6 fold change over vehicle

Now from value to molecule, other results behind:

EC50 (human FXR) | EC50 [1] | EC50 (human TGR5) | SMILES | further results
– | 1.26 to 50.1 µM | 0.126 to 1 µM | O=C(N1CCCc2cccnc21)C1(OCc2cc(Cl)ccc2Cl)CC1 [Example 85, 1-([1-[(2,5-dichlorophenyl)methoxy]cyclopropyl]carbonyl)-1,2,3,4-tetrahydro-1,8-naphthyridine] | Number of Mice with Gallbladder Concentration < LLOQ [2]: 0/6; concentration at 16 h [2]: 200 nM
– | 1.26 to 50.1 µM | 0.126 to 1 µM | O=C(O)CCc1cc(Cl)c(CNC2(C(=O)N3CCN(C4CC4)c4ccccc43)CC2)cc1Cl [Example 83, 3-(2,5-dichloro-4-(((1-(4-cyclopropyl-1,2,3,4-tetrahydroquinoxaline-1-carbonyl)cyclopropyl)amino)methyl)phenyl)propanoic acid] | Number of Mice with Gallbladder Concentration < LLOQ [2]: 0/6; concentration at 16 h [2]: 30 nM
> 50.1 µM | < 0.1 µM | < 0.1 µM | O=C(CCc1cc(Cl)c(COC2(C(=O)N3CCN(C4CC4)c4ccccc43)CC2)cc1Cl)NC[C@H](O)[C@@H](O)[C@H](O)[C@H](O)CO [Example 88, 3-[2,5-dichloro-4-([1-[(4-cyclopropyl-1,2,3,4-tetrahydroquinoxalin-1-yl)carbonyl]cyclopropoxy]methyl)phenyl]-N-[(2S,3R,4R,5R)-2,3,4,5,6-pentahydroxyhexyl]propanamide] | –

— US20150148311A1, “NON-SYSTEMIC TGR5 AGONISTS” (Ardelyx, Inc., priority 2011, published 2015)
